Results: patent publication EP4635499A1, “PHARMACEUTICAL COMPOSITION FOR VASCULAR MALFORMATIONS AND METHOD FOR CURING VASCULAR MALFORMATIONS” (ARTham Therapeutics Inc., priority 2022, dated 2024)
Values joined by “and” are separate entries in the source; they are usually repeats but may differ in a detail not shown here. Equal entries are not always repeated.

Columns and labels:
[1] = test system: vascular malformation patients; test: Randomized double-blind study in vascular malformation patients: response rate and volume change of target lesion measured by MRI; format: in vivo, human; conditions: oral; for RESPONSE RATE AT 12 WEEKS OF ADMINISTRATION: once a day after breakfast, week 12, response = complete + partial (at least 20% reduction in target lesion volume, MRI); for VOLUME CHANGE (AVERAGE VALUE) OF TARGET LESION AT 24 WEEKS OF ADMINISTRATION / RESPONSE RATE AT 24 WEEKS OF ADMINISTRATION: once a day, week 24; for VOLUME CHANGE (AVERAGE VALUE) OF TARGET LESION AT 24 WEEKS OF ADMINISTRATION: MRI; for RESPONSE RATE AT 24 WEEKS OF ADMINISTRATION: primary endpoint
Description: The efficacy was confirmed in a randomized double-blind study in vascular malformation patients. A serabelisib-containing dry syrup (contained 200 mg of serabelisib in 1 g) was administered orally for 24 weeks once a day after breakfast at an adult serabelisib dose of 50 mg or an adult serabelisib dose of 100 mg. For the pediatric patients, the administered dose was made the dose calculated based on body surface area conversion according to the Crawford formula for each of the adult doses. The primary endpoint was the response rate based on the volume change (measured by MRI) of the target lesion at the end of 24 weeks of administration. In the analysis of the primary endpoint for evaluating efficacy, a complete response was defined as the disappearance of the target lesion and a partial response was defined as an at least 20% reduction in the volume of the target lesion in comparison to that at the time of the screening test. The 95% confidence interval for the response rate (the sum of complete responses and partial responses as a percentage of the total) based on the change in target lesion volume (measured by MRI) between prior to administration and the time point of completion of 24 weeks of administration, was calculated using the Clopper-Pearson method, and whether its lower limit exceeded 12.5% was checked. For the secondary endpoint, the […] based on the change in target lesion volume (measured by MRI) at the time point of completion of 12 weeks of administration was evaluated. With respect to blood vessel malformation lesions, cystic components of lymphatic malformations, lymphedema, lymph fluid, and lymphorrhea (including also intraosseous, extraosseous, and subcutaneous), which are components of vascular malformations, the target lesion detected using the T2 fat-suppressed image was selected for the target lesion and its volume was measured.

[2] = test system: vascular malformation patients; test: Randomized double-blind study in vascular malformation patients: pain severity by Visual Analogue Scale (VAS); format: in vivo, human; conditions: for VAS AVERAGE VALUE / VAS MEDIAN VALUE: scale 0-100
Description: The efficacy was confirmed in a randomized double-blind study in vascular malformation patients. A serabelisib-containing dry syrup (contained 200 mg of serabelisib in 1 g) was administered orally for 24 weeks once a day after breakfast at an adult serabelisib dose of 50 mg or an adult serabelisib dose of 100 mg. For the pediatric patients, the administered dose was made the dose calculated based on body surface area conversion according to the Crawford formula for each of the adult doses. The primary endpoint was the response rate based on the volume change (measured by MRI) of the target lesion at the end of 24 weeks of administration. The severity of pain at the baseline, week 4 of administration, week 12 of administration, and week 24 of administration was evaluated (using VAS). A 10-cm straight line was drawn on the recording paper; the left end was defined as 0 and the right end was defined as 100; "0" was assigned to a condition of "pain completely absent" and "100" was assigned to a condition of "the worst pain, or a more severe pain cannot be imagined"; and inquiry was made as to where the current pain level was on the straight line and this was recorded. It was also recorded when the information about a subject was provided by someone else who was not the subject. In addition, the subjects were classified into under 15 years and 15 years and over for the age when consent was obtained, and recording paper appropriate for each age group was used.

[3] = test system: vascular malformation patients; test: Randomized double-blind study in vascular malformation patients: hyperglycemia side effect diagnosed by a physician; format: in vivo, human; conditions: 50 mg or 100 mg serabelisib once a day for 24 weeks; 35 patients; diagnosed by a physician based on test values such as a blood glucose value
Source text: According to an embodiment, the side effects are hyperglycemia and hypercreatinemia. According to an embodiment, the side effect is hyperglycemia. In the present Description, "hyperglycemia" is an adverse event (side effect) associated with the pharmacological action of a drug and is diagnosed by a physician based on test values such as the blood glucose level.
The efficacy was confirmed in a randomized double-blind study in vascular malformation patients. A serabelisib-containing dry syrup (contained 200 mg of serabelisib in 1 g) was administered orally for 24 weeks once a day after breakfast at an adult serabelisib dose of 50 mg or an adult serabelisib dose of 100 mg. For the pediatric patients, the administered dose was made the dose calculated based on body surface area conversion according to the Crawford formula for each of the adult doses. The primary endpoint was the response rate based on the volume change (measured by MRI) of the target lesion at the end of 24 weeks of administration.
• (1) The study is discontinued when a test value of 140 mg/dL or higher is observed for the blood glucose level (fasting) in the clinical test performed at each visit. • (2) The study is discontinued when the clinical tests performed at each visit meets all of the following criteria stipulated for each age group.

[4] = existing therapeutic agents for vascular malformations; NPL 2, NPL 3; cited from earlier work

In the case of `Nc1nc2cc(-c3ccc4ncc(C(=O)N5CCOCC5)n4c3)ccc2o1` [ART-001, serabelisib], the “RESPONSE RATE AT 12 WEEKS OF ADMINISTRATION” value ([1]; 50 mg serabelisib (adult dose) as dry syrup, 17 subjects) is reported as 0% (0), the “VOLUME CHANGE (AVERAGE VALUE) OF TARGET LESION AT 24 WEEKS OF ADMINISTRATION” value ([1]; 50 mg serabelisib) is reported as -2.3% and the “RESPONSE RATE AT 24 WEEKS OF ADMINISTRATION” value ([1]; 50 mg serabelisib, 17 subjects, 95% confidence interval 10.3% - 56.0% (Clopper-Pearson)) is reported as 29.4% (6) and 29.4% (5). The “RESPONSE RATE AT 24 WEEKS OF ADMINISTRATION” value ([1]; 50 mg serabelisib, 17 subjects, 95% confidence interval 10.3% - 56.0% (Clopper-Pearson), listed as serabelisib) was 29.4%, the “RESPONSE RATE AT 12 WEEKS OF ADMINISTRATION” value ([1]; 100 mg serabelisib (adult dose) as dry syrup, 18 subjects) was 16.7% (3) and the “VOLUME CHANGE (AVERAGE VALUE) OF TARGET LESION AT 24 WEEKS OF ADMINISTRATION” value ([1]; 100 mg serabelisib) was -12.6%. The “RESPONSE RATE AT 24 WEEKS OF ADMINISTRATION” value ([1]; 100 mg serabelisib, 18 subjects, 95% confidence interval 13.3% - 59.0% (Clopper-Pearson)) was 33.3% (6), the “RESPONSE RATE AT 24 WEEKS OF ADMINISTRATION” value ([1]; 100 mg serabelisib, 18 subjects, 95% confidence interval 13.3% - 59.0% (Clopper-Pearson), listed as serabelisib) was 33.3% and the “VAS AVERAGE VALUE” ([2]; 50 mg administration group, WEEK 4 OF ADMINISTRATION, baseline average 29.4) was 20.6. For the same molecule, the “VAS MEDIAN VALUE” ([2]; 50 mg administration group, WEEK 4 OF ADMINISTRATION, baseline median 16.0) was 6.0, the “VAS AVERAGE VALUE” ([2]; 50 mg administration group, WEEK 12 OF ADMINISTRATION, baseline average 29.4) was 21.2 and the “VAS AVERAGE VALUE” ([2]; 50 mg administration group, WEEK 24 OF ADMINISTRATION, baseline average 29.4) was 16.1. The “VAS MEDIAN VALUE” ([2]; 50 mg administration group, WEEK 24 OF ADMINISTRATION, baseline median 16.0) was 4.0, the “VAS AVERAGE VALUE” ([2]; 100 mg administration group, WEEK 4 OF ADMINISTRATION, baseline average 24.6) was 15.8 and the “VAS MEDIAN VALUE” ([2]; 100 mg administration group, WEEK 4 OF ADMINISTRATION, baseline median 20.0) was 2.0. The “VAS AVERAGE VALUE” ([2]; 100 mg administration group, WEEK 12 OF ADMINISTRATION, baseline average 24.6) was 15.7, the “VAS MEDIAN VALUE” ([2]; 100 mg administration group, WEEK 12 OF ADMINISTRATION, baseline median 20.0) was 2.0 and the “VAS AVERAGE VALUE” ([2]; 100 mg administration group, WEEK 24 OF ADMINISTRATION, baseline average 24.6) was 12.4. For the same molecule, the “VAS MEDIAN VALUE” ([2]; 100 mg administration group, WEEK 24 OF ADMINISTRATION, baseline median 20.0) was 8.0, the “average values and median values of the VAS after the treatment” value ([2]; both the 50 mg administration group and the 100 mg administration group, versus baseline) was “reduced” and the Hyperglycemia side effect [3] was “no subject exhibited an event that was diagnosed as hyperglycemia”.

For `CO[C@H]1C[C@@H]2CC[C@@H](C)[C@@](O)(O2)C(=O)C(=O)N2CCCC[C@H]2C(=O)O[C@H]([C@H](C)C[C@@H]2CC[C@@H](O)[C@H](OC)C2)CC(=O)[C@H](C)/C=C(\C)[C@@H](O)[C@@H](OC)C(=O)[C@H](C)C[C@H](C)/C=C/C=C/C=C/1C` [Sirolimus, sirolimus], the known side effects [4] is listed as “immunosuppression, hyperglycemia (unknown frequency)”.

For `Cc1nc(NC(=O)N2CCC[C@H]2C(N)=O)sc1-c1ccnc(C(C)(C)C(F)(F)F)c1` [Alpelisib, alpelisib], the known side effects [4] is given as “hyperglycemia”.
